In paper PMC10975061, “Cellular Uptake and Transport Mechanism Investigations of PEGylated Niosomes for Improving the Oral Delivery of Thymopentin” (Pharmaceutics, 2024):
Where two headings read alike, the source gives them in different places. Peptide text beside a SMILES is read from it.

Assays:
[1] = system: Caco-2 and HT-29 co-cultured cells; test: MTT cytotoxicity (cell viability) assay
Method: MTT assay was used for the cytotoxicity study. […] The DMEM was discarded, and the Caco-2 and HT-29 co-cultured cells were washed with PBS before introducing TP5 test samples. […] Subsequently, 20 μL of MTT (5 mg/mL) was added, and the cells were incubated for an additional 4 h. Dimethyl sulfoxide (DMSO) was introduced to dissolve the formazan crystals, and the absorbance at 570 nm was measured using a microplate UV-Vis spectrophotometer (SpectraMax® Plus, Molecular Devices, San Jose, CA, USA). The percentage of cell viability was calculated in comparison to the untreated control group.
For each test sample group and at every time point over the course of three days, cell viability was computed. The outcomes were consolidated using the SoftMax Pro v5 software system through Equation (1). (1) V=A/A0×100% where V is the cell viability, A is sample absorbance, and A0 is control absorbance.
The concentration of these selected inhibitors and enhancers was screened by cytotoxicity using Caco-2 and HT-29 co-cultured cells by MTT assay. Then, these inhibitors and enhancers with safe concentrations were added to the AP side with a 0.5 mL 1 mg/mL solution of TP5 and TP5-PEG-niosomes, respectively. All inhibitors were dissolved in dimethyl sulfoxide and diluted with HBSS. The transport characteristics of TP5 and TP5-PEG-niosomes through Caco-2 and HT-29 co-cultured cell monolayers were expressed as the cumulative transported drug and transport rate. The transport rate (Flux) was denoted in μg/min/cm^2 and computed using the formula Flux = (dM/dt)/A, where dM/dt represents the cumulative amount of TP5 in the BL side per unit time (µg/min), and A is the surface area of the insert membrane (1.1 cm^2). […] The TEER values of the monolayers were assessed at 1 h intervals throughout the experimental duration, guaranteeing the integrity of the monolayers.

[2] = system: Caco-2 and HT-29 co-cultured cells; test: Quantitative cellular uptake of TP5 (RP-HPLC and BCA protein assay), with inhibitors and low temperature; assay type: in vitro ADME, human
Method: Briefly, 5 mL of Caco-2 and HT-29 co-cultured cells’ suspension at a density of 10^5 cells/cm^2 was seeded onto 60 mm plastic dishes (Corning, New York, NY, USA), fed complete DMEM every 3 days and incubated at 37 °C in an atmosphere of 5% CO2 and 95% relative humidity. […] Then, 25 µL of the cell lysates from each well were subjected to a BCA protein assay (Thermo Scientific, Waltham, MA, USA) to determine the amount of cell protein. The entire protein concentration in each group was calculated based on the linearity equation obtained from the BSA standard curve. Then, cell lysates were centrifuged for 15 min at 14,000 rpm, and the supernatants were analyzed for the amount of uptake TP5 using the RP-HPLC method mentioned earlier. The uptake of TP5 by Caco-2 and HT-29 co-cultured cells was calculated and expressed as the amount of drug (ng) uptake per µg cell protein. One of the mechanisms for cellular uptake depends on concentration. […] The treated Caco-2 and HT-29 co-cultured cells were then scraped off into a 2 mL microcentrifuge tube containing 1.0 mL extraction solution (10% Triton X-100) and sonicated to accelerate cell lysis. Then, 25 µL of the cell lysates from each well were subjected to a BCA protein assay (Thermo Scientific, Waltham, MA, USA) to determine the amount of cell protein as mentioned above. Then, cell lysates were centrifuged for 15 min at 14,000 rpm, and the supernatants were analyzed for the amount of uptake TP5 using the RP-HPLC method mentioned above. The uptake of TP5 by Caco-2 and HT-29 co-cultured cells was calculated and expressed as the amount of drug (ng) uptake per µg cell protein. […] The incubation temperature of 4 °C was also tested. After the removal of the drug solution and formulation (4 h incubation), the dishes were immediately rinsed twice with ice-cold HBSS solution (5 mL). The treated Caco-2 and HT-29 co-cultured cells were then scraped off into a 2 mL microcentrifuge tube containing 1.0 mL extraction solution (10% Triton X-100) and sonicated to accelerate cell lysis. Furthermore, 25 µL of the cell lysates from each well were subjected to a BCA protein assay (Thermo Scientific, Waltham, MA, USA) to determine the amount of cell protein mentioned above. Then, cell lysates were centrifuged for 15 min at 14,000 rpm, and the supernatants were analyzed for the amount of cellular uptake TP5 using the RP-HPLC method mentioned above. The uptake of TP5 by Caco-2 and HT-29 co-cultured cells was calculated and expressed as the amount of drug (ng) uptake per µg cell protein.

[3] = system: Caco-2 and HT-29 co-cultured cell monolayers; test: Transepithelial transport across Transwell monolayers (AP to BL), with inhibitors and enhancers; assay type: in vitro ADME, human
Method: (§1) Caco-2 and HT-29 co-cultured cells at a density of 10^5 cells/cm^2 were seeded on 12-well Insert Transwell® inserts (0.4 µm pore diameter, 1.1 cm^2 area, Corning, New York, NY, USA). Caco-2 and HT-29 co-cultured cells were incubated at 37 °C in an atmosphere of 5% CO2 and 95% relative humidity in complete DMEM. The medium was replaced every 3 days with 0.5 mL medium on the apical (AP) side and 1.5 mL on the basolateral (BL) side, as shown in Figure 2. The integrity of the co-cultured cell monolayer was assessed by monitoring transepithelial electrical resistance (TEER). TEER measurements were conducted using a Millicell-ERS Volt-Ohm meter connected to a pair of chopstick electrodes (Millipore Corp, Boston, MA, USA). […] TEER measurements were taken at 3-day intervals until the TEER values surpassed 350 Ω·cm^2 (around 24 days post-seeding in this study). The TEER calculation utilized the formula TEER = (Rm − Rb) × A, where Rm, Rb, and A represent the measured TEER values, TEER values of the blank transwell, and the membrane surface area of the transwell (1.13 cm^2), respectively. Caco-2 monolayers with TEER values exceeding 350 Ω·cm^2 were deemed to have acceptable integrity and were considered suitable for the transport study.
(§2) Before the transport experiments, Caco-2 and HT-29 co-cultured cell monolayers underwent equilibration with HBSS for 30 min and were subsequently aspirated. All transport studies were carried out at 37 °C. A 0.5 mL solution of TP5 and TP5-PEG-niosomes (0.1 mg TP5 per mL in HBSS) was introduced on the AP side, while the BL side of the inserts contained 1.5 mL of HBSS, as depicted in Figure 2. At 0, 60, 120, 240, and 360 min of incubation, 200 µL was withdrawn from the BL-receiving chamber and immediately replaced with an equal volume of pre-warmed HBSS (37 °C). The concentration of TP5 in the transport medium was analyzed using RP-HPLC.
(§3) TP5 transport mechanisms were investigated in the absence or presence of variable inhibitors or enhancers. […] […].

[4] = as above; assay type: in vitro ADME, human; conditions: apical to basolateral, 6 h
Method: as §1, §2, §3

CN(C)C(=O)CCSC(SCCC(=O)O)c1cccc(/C=C/c2ccc3ccc(Cl)cc3n2)c1 (stereo not shown) [MK-571]
safe but still effective concentration for treatment ([1]; MTT, 72 h at 37 °C): 0.1 mM

C[C@H](CCC(=O)NCCS(=O)(=O)O)[C@H]1CC[C@H]2[C@@H]3[C@H](O)C[C@@H]4C[C@H](O)CC[C@]4(C)[C@H]3C[C@H](O)[C@]12C [Sodium taurocholate]
safe but still effective concentration for treatment ([1]; MTT, 72 h at 37 °C): 20 mM

CC(C)[C@H](NC(=O)[C@H](CC(=O)O)NC(=O)[C@H](CCCCN)NC(=O)[C@@H](N)CCCN=C(N)N)C(=O)N[C@@H](Cc1ccc(O)cc1)C(=O)O [TP5, thymopentin] (H-RKDVY-OH)
cellular uptake amount with adsorptive-mediated endocytosis inhibitor ([2]; 1 mM protamine sulphate, 4 h, p < 0.005): significantly reduced | cellular uptake amount at low temperature ([2]; 4 °C, 4 h): significantly decreased | time of highest amount of cellular uptake drug ([2]; HPLC and BCA assay, time course 0.5-5 h): 2 h | cellular uptake value ([2]; pure drug solution, in 2 h, maintained afterwards): 3.56 ± 1.13 ng/µg | TP5 cumulative amount with EDTA ([3]; EDTA group, after the first 60 min): increase sharply | cumulative amount of TP5 transported, comparison between groups ([3]; no treatment, AP to BL): no significant difference | TP5 cumulative amount with sodium taurocholate ([3]; sodium taurocholate group, after the first 60 min): increase sharply | Papp A→B ([4]; EDTA (10 mM), read-out: Papp values): 1.42 ± 0.089 nm/s | Papp A→B ([4]; chlorpromazine (10 μg/mL), read-out: Papp values): 0.573 ± 0.063 nm/s | Papp A→B ([4]; lowest to highest over no treatment, inhibitors and enhancers, read-out: range of Papp values over all treatments): 0.43 to 1.34 nm/s | Papp A→B ([4]; no treatment, read-out: Papp values): 0.539 ± 0.046 nm/s | Papp A→B ([4]; silymarin (20 µM), read-out: Papp values): 0.43 ± 0.055 nm/s | Papp A→B ([4]; sodium azide (20 mM), read-out: Papp values): 0.59 ± 0.052 nm/s | Papp A→B ([4]; sodium taurocholate (20 mM), read-out: Papp values): 1.34 ± 0.052 nm/s | cytotoxicity (MTT cell viability) ([1]; TP5 solutions 0.005 to 10 mg/mL, 24, 48 and 72 h): not toxic

CN(C)CCCN1c2ccccc2Sc2ccc(Cl)cc21 [chlorpromazine]
safe but still effective concentration for treatment ([1]; human, 72 h): 10 µg/mL

[N-]=[N+]=[N-].[Na+] [sodium azide]
safe but still effective concentration for treatment ([1]; MTT, 72 h at 37 °C): 20 mM
